Values quoted from earlier work as cited in PMC8513935.

Experiments:
[1] = derived by the authors as gas->solvent minus gas->water (a hypothetical dry solvent; the ESI), not a two-phase measurement
[2] = log P octanol/water from commercial databases, averaged (the ESI); conditions: Octanol (wet), 25 C
[3] = experimental, compiled by the authors from the literature (the ESI cites the sources)

Row | SMILES | log K of transfer, water to solvent ([1]; 2-Methylpropan-1-ol, 25 C) [log10 K] | log K of transfer, water to solvent ([1]; 2-Methylpropan-2-ol, 25 C) [log10 K] | log K of transfer, water to solvent ([1]; 3-Methylbutan-1-ol, 25 C) [log10 K] | log K of transfer, water to solvent ([1]; Butan-1-ol, 25 C) [log10 K] | log K of transfer, water to solvent ([1]; Butan-2-ol, 25 C) [log10 K] | log K of transfer, water to solvent ([1]; Hexadecane, 25 C) [log10 K] | log K of transfer, water to solvent ([1]; Hexane, 25 C) [log10 K] | log K of transfer, water to solvent ([1]; Pentan-1-ol, 25 C) [log10 K] | log K of transfer, water to solvent ([1]; Propan-1-ol, 25 C) [log10 K] | log K of transfer, water to solvent ([1]; Propan-2-ol, 25 C) [log10 K] | log K of transfer, water to solvent [2] [log10 K] | log K of transfer, gas to solvent ([3]; 2-Methylpropan-1-ol, 25 C) [log10 K] | log K of transfer, gas to solvent ([3]; 2-Methylpropan-2-ol, 25 C) [log10 K] | log K of transfer, gas to solvent ([3]; 3-Methylbutan-1-ol, 25 C) [log10 K] | log K of transfer, gas to solvent ([3]; Butan-1-ol, 25 C) [log10 K] | log K of transfer, gas to solvent ([3]; Butan-2-ol, 25 C) [log10 K] | log K of transfer, gas to solvent ([3]; Hexadecane, 25 C) [log10 K] | log K of transfer, gas to solvent ([3]; Hexane, 25 C) [log10 K] | log K of transfer, gas to solvent ([3]; Pentan-1-ol, 25 C) [log10 K] | log K of transfer, gas to solvent ([3]; Propan-1-ol, 25 C) [log10 K] | also measured
1 | CCCl | 1.32 | 1.33 | 1.32 | 1.37 | 1.31 | 1.22 | 1.45 | 1.35 | 1.4 | 1.35 | 1.43 | 1.78 | 1.79 | 1.78 | 1.83 | 1.77 | 1.68 | 1.91 | 1.81 | 1.86 | log K of transfer, water to solvent ([1]; Chlorobenzene, 25 C): 1.71 log10 K; log K of transfer, water to solvent ([1]; Methanol, 25 C): 1.47 log10 K; log K of transfer, gas to solvent ([3]; Chlorobenzene, 25 C): 2.17 log10 K; log K of transfer, gas to solvent ([3]; Methanol, 25 C): 1.93 log10 K; log K of transfer, gas to solvent ([3]; Propan-2-ol, 25 C): 1.81 log10 K; log K of transfer, gas to solvent ([3]; Water, 25 C): 0.46 log10 K
2 | C=CCC | 2.46 | 2.5 | 2.47 | 2.48 | 2.47 | 2.54 | 2.83 | 2.48 | 2.48 | 2.46 | 2.4 | 1.45 | 1.49 | 1.46 | 1.47 | 1.46 | 1.53 | 1.83 | 1.47 | 1.47 | log K of transfer, water to solvent ([1]; CCl4, 25 C): 2.84 log10 K; log K of transfer, gas to solvent ([3]; CCl4, 25 C): 1.83 log10 K; log K of transfer, gas to solvent ([3]; Propan-2-ol, 25 C): 1.45 log10 K; log K of transfer, gas to solvent ([3]; Water, 25 C): -1.01 log10 K
3 | C=CC | 1.92 | 1.96 | 1.93 | 2 | 1.94 | 1.92 | 2.25 | 1.94 | 1.96 | 1.94 | 1.77 | 0.95 | 0.99 | 0.963 | 1.03 | 0.97 | 0.946 | 1.29 | 0.97 | 0.99 | log K of transfer, water to solvent ([1]; Butanone, 25 C): 2.1 log10 K; log K of transfer, water to solvent ([1]; CCl4, 25 C): 2.32 log10 K; log K of transfer, water to solvent ([1]; Methanol, 25 C): 1.92 log10 K; log K of transfer, gas to solvent ([3]; Butanone, 25 C): 1.13 log10 K; log K of transfer, gas to solvent ([3]; CCl4, 25 C): 1.35 log10 K; log K of transfer, gas to solvent ([3]; Methanol, 25 C): 0.95 log10 K; log K of transfer, gas to solvent ([3]; Propan-2-ol, 25 C): 0.97 log10 K; log K of transfer, gas to solvent ([3]; Water, 25 C): -0.97 log10 K
